Measured values taken from patent US20020018808A1, “Vaccines against sterols” (priority 1990, published 2002).

Experiments:
[1] = ELISA of antisera from mice immunized with sterol-containing liposomes; type: in vivo, BALB/c mice
Description: Accordingly, the following study is designed to assess the immunogenicity of different cholesterol or sterol analogs for use in a vaccine to prevent hyper-cholesterolemia. Briefly summarized, several sterols such as cholesterol, vitamin D2, cholesteryl oleate, cholesteryl myristate, 4-cholesten-3-one, and phosphatidylcholesterol (17β-Linkage) and (3β-Linkage), are incorporated into liposomes containing DPMC (1.8), DMPG (0.2), Chol (1.5) (mol/mol) and lipid A (25 to 200 μg/mol, preferably 25 μg/mol phospholipid) so that the phospholipid concentration remains constant. These liposomes are inoculated into BALB/c mice i.p. at day 0 and day 14. Mice are bled at day 14 and day 21 and antibodies specific for the antigen are assessed by ELISA using the antigen itself or crystalline cholesterol.
Multilamellar vesicles (“MLV”) are produced by aliquotting DMPC:DMPG:Cholesterol, 9:1:7.5 (mol/mol), and lipid A at 25 to 200 μg/Imol phospholipid into a round bottom flask. The mixture is rotary evaporated, desiccated, and hydrated in sterile, deionized water. Lipids are lyophilized and reconstituted in PBS to 10 mM with respect to phospholipids and assayed for total phosphorous.
Male BALB/c mice, 6-8 weeks old, are bled and then immunized with 0.1 ml liposomes containing 1 μmol total phospholipid and 25-200 μg monophosphoryl lipid A ip. At 14 day intervals, mice are bled and sera collected. […]

[2] = Complement-dependent immune lysis assay of antisera (glucose release from liposomes); design: species or system BALB/c mice
Description: This assay measures antibody-mediated, complement-dependent release of encapsulated glucose from liposomes. Released glucose is measured spectrophotometrically using a Tris-buffered assay reagent containing hexokinase, glucose-6-phosphate dehydrogenase, ATP, and NADP. This particular assay is a measurement of antibody functional activity, rather than particle (antibody) detection.
In addition, the antisera from mice vaccinated with phosphatidylcholesterol could detect cholesterol present in liposomes containing 43% cholesterol as well as 71% cholesterol, and were equally as active against liposomes containing phosphatidylcholesterol in a complement-dependent immune lysis assay. […] In the above antibody-dependent immune lysis assays, a release greater than 5% indicates a positive reaction.
The test liposomes contained or lacked 5 mol % phosphatidylcholesterol. The antisera were tested using a complement-dependent immune lysis assay, wherein a release greater than 5% indicated a positive reaction.

Structure (SMILES) | Antibody isotype induced ([1]; mice, detected by ELISA (FIG. 8)) | Glucose release of test liposomes ([2]; immune lysis assay, liposomes composed of 5% phosphatidylcholesterol (17β-Linkage)) | Liposome integrity in antibody-mediated immune lysis assay ([2]; more than 5 mol % phosphatidylcholesterol in liposomes containing 43 mol % cholesterol) | Reactivity of generated antibody ([1]; compound of Example VI in liposomes)
CC(C)CCC[C@@H](C)[C@H]1CC[C@H]2[C@@H]3CC=C4C[C@@H](O)CC[C@]4(C)[C@H]3CC[C@]12C [cholesterol] | induce primarily IgM |  |  | 
CCCCCCCCCCCCCC(=O)OCC(COP(=O)(O)OCCNC(=O)[C@H]1CC[C@H]2[C@@H]3CC=C4C[C@@H](O)CC[C@]4(C)[C@H]3CC[C@]12C)OC(=O)CCCCCCCCCCCCC (stereo partly drawn) [phosphatidylcholesterol (17β-Linkage), N-(5-Androsten-3β-OL-17β-amido) dimyristoylphosphatidylethanolamine] |  | glucose release equivalent to liposomes containing 43% and 71% cholesterol | leaky liposomes | IgG antibody that reacts with crystalline cholesterol, 43% cholesterol liposomes, and 71% liposomes
